In patent publication US9341616B2, “Sweet taste receptor chimeric proteins and use thereof” (AJINOMOTO CO., INC., priority 2014, dated 2016):
Read-outs that look alike come from different tables or passages of the source. Residues, ends and D or L forms follow the SMILES beside them.

Biological target: h-mT1R2-481/T1R3mosaicA (UniProt Q8TE23+Q925D8, A12W/A31M/A537S/A558R/A564V/A568V/A570T/A588V/A645S/A649T/A658V/A698V/A702T/A782V/A793V/A807V/C582S/C678S/E16H/E530V/E534N/E542M/E548N/E725V/F14L/F29L/F525Y/F541I/F612A/F622V/F665L/F695L/G696N/G701T/H484Y/H528R/H728R/I36V/I481V/I486P/I490V/I510L/I518V/I595M/I60P/I617V/I643V/I645L/I692L/I695G/I706V/I740A/I803L/K30R/K504M/K555R/K565R/K626T/K714N/K818R/K827G/L17P/L521P/L560F/L571I/L578I/L610P/L631F/L636F/L639V/L684P/L688V/L702I/L734M/L735F/L800F/L823M/L825Q/M19T/M492I/M616G/M644L/M682V/M690V/M744T/M748V/N52R/N540G/N541S/N547G/N58S/N63T/N675D/N721H/P545F/P561R/P564S/P61V/P638T/P824S/Q32K/Q536L/Q53S/Q546K/Q550E/Q555R/Q56R/Q611L/Q676H/Q757R/Q795R/Q831P/R498S/R632Q/R667S/S22P/S45E/S501P/S547N/S550A/S576L/S595F/S610P/S628F/S635P/S637R/S663R/S670G/S679G/S681F/S703N/S717H/S727G/S784D/S804G/T46A/T50G/T529S/T542A/T549I/T609V/T629S/T642S/T663I/T694M/T705I/T706G/T716I/T813A/V508I/V512P/V557A/V573A/V584A/V585L/V613L/V617M/V673M/V687A/V691A/V694A/V718L/V718M/V723A/V729T/V738A/V741L/V774I/V791M/V805L/V812A/V821L/W599R/W676R/W824R/Y533F/Y615F/Y671F/Y680C/Y769S/Y783H/Y794L)
Sequence (Q8TE23 with tags, fused parts or gaps with the stated changes limits assumed): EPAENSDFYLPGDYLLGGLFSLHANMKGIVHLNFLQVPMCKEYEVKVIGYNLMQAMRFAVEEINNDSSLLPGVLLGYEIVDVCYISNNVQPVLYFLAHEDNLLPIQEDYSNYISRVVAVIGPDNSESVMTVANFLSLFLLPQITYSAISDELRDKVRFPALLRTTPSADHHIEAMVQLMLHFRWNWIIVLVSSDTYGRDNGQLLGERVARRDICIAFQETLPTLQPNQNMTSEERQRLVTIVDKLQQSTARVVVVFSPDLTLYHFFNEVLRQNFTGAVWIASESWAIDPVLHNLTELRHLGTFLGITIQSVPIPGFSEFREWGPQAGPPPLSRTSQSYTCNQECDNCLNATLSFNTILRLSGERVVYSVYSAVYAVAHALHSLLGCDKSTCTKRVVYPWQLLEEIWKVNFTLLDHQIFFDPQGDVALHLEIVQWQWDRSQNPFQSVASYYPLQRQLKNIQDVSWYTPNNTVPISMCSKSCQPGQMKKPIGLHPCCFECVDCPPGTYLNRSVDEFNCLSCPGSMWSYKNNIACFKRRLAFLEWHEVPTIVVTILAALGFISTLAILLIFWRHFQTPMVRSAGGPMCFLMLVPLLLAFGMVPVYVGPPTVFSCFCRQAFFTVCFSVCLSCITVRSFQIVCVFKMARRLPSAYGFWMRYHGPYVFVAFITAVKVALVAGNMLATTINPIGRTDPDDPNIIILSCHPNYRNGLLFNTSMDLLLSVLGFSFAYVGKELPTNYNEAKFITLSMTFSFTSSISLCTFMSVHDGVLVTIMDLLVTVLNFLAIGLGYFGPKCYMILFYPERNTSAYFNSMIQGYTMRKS
Sequence (Q925D8 with tags, fused parts or gaps with the stated changes limits assumed): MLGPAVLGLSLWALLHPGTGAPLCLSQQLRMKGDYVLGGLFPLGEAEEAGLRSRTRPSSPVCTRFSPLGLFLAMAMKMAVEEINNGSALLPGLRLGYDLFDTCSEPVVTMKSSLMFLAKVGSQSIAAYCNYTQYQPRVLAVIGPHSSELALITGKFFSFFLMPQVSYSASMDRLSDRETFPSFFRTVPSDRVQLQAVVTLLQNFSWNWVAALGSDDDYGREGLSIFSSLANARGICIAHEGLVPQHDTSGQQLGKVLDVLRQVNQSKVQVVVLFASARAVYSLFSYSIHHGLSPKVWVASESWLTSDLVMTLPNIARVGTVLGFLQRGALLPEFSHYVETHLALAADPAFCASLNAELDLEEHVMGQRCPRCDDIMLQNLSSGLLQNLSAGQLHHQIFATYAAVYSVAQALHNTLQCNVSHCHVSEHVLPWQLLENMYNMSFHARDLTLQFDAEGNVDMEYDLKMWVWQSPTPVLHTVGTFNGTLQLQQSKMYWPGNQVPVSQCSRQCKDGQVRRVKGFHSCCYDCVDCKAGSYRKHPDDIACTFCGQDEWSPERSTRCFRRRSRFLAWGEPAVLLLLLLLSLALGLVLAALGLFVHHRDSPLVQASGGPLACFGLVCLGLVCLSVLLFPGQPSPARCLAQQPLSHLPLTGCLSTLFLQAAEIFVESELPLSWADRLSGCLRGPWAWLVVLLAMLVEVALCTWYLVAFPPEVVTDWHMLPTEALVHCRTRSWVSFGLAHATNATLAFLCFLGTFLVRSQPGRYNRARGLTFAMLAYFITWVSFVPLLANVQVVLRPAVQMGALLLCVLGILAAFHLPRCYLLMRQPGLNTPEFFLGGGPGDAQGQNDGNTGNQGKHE
Settings: HEK293E cells
[1] = Table 3, genes h-mT481/T3mA (h-mT1R2-481, T1R3mA)
[2] = Table 4, genes h-mT481/T3mA (h-mT1R2-481, T1R3mA)
[3] = Table 5, genes h-mT481/T3mA (h-mT1R2-481, T1R3mA)
[4] = Table 6, genes h-mT481/T1Rm3A (h-mT1R2-481, T1R3mA)

| Structure (SMILES) | S/N [1] | S/N [2] | S/N [3] | S/N [4] |
| --- | --- | --- | --- | --- |
| COC(=O)[C@H](Cc1ccccc1)NC(=O)[C@@H](N)CC(=O)O [Aspartame, aspartame] (HELM PEPTIDE1{D.F.[CO[*:1]]}$$$$V2.0) | 7.0 | 9.4 | 7.0 | 7.3 |
| OC[C@H]1O[C@H](O[C@]2(CCl)O[C@H](CCl)[C@@H](O)[C@@H]2O)[C@H](O)[C@@H](O)[C@H]1Cl [Sucralose, sucralose] | 7.8 | 9.0 | 7.8 | 7.0 |
| O=C1NS(=O)(=O)c2ccccc21.[Na] [Saccharin Na, sodium saccharin] | 5.6 | 5.6 | 5.6 | 6.9 |
| COC(=O)[C@H](Cc1ccccc1)NC(=O)[C@H](CC(=O)O)NCCCc1ccc(OC)c(O)c1 [Advantame, advantame] | 10.6 | 11.3 | 10.6 | 10.5 |
| C[C@H](NC(=Nc1ccc(C#N)cc1)NCC(=O)O)c1ccccc1 [SC-45647, [3-[(S)-1-phenylethyl]-2-(4-cyanophenyl)guanidino]acetic acid] | 8.4 | 7.9 | 8.4 | 8.7 |
| OC[C@H]1O[C@@](CO)(O[C@H]2O[C@H](CO)[C@@H](O)[C@H](O)[C@H]2O)[C@@H](O)[C@@H]1O [Sucrose, sucrose] | 3.4 | 3.9 | 3.4 | 3.8 |
| CC1=CC(=O)NS(=O)(=O)O1 [Acesulfame K, acesulfame potassium] | 4.7 | 5.4 | 4.7 | 6.0 |
| COC(=O)[C@H](Cc1ccccc1)NC(=O)[C@H](CC(=O)O)NCCC(C)(C)C [Neotame, neotame] | 8.8 | 9.4 | 8.8 | 8.9 |
| COc1ccc(CCC(=O)c2c(O)cc(O[C@@H]3O[C@H](CO)[C@@H](O)[C@H](O)[C@H]3O[C@@H]3O[C@@H](C)[C@H](O)[C@@H](O)[C@H]3O)cc2O)cc1O [NHDC, neohesperidin dihydrochalcone] |  |  | 4.3 | 5.9 |
